Measured values taken from ChEMBL document CHEMBL1153686, “On the microbial biogeneration of (R) -jasmolactone” (1993).

Legend:
Format in all cases: functional
Kodamaea ohmeri [1] = test: Nonan-4-olide Isolated at 24 hours incubation of compound in Pichia ohmeri
Kodamaea ohmeri [2] = test: […] Isolated at 24 hours incubation of compound in Pichia ohmeri
Scheffersomyces stipitis [3] = test: […] Isolated at 24 hours incubation of compound in Pichia stipitis
Scheffersomyces stipitis [4] = test: Octane-4-olide Isolated at 24 hours incubation of compound in Pichia stipitis
Scheffersomyces stipitis [5] = test: Hexane-4-olide Isolated at 24 hours incubation of compound in Pichia stipitis
Scheffersomyces stipitis [6] = test: 5-octen-4-olide Isolated at 24 hours incubation of compound in Pichia stipitis
Kodamaea ohmeri [7] = test: Hexane-4-olide Isolated at 24 hours incubation of compound in Pichia ohmeri
Kodamaea ohmeri [8] = test: E-5-decen-4-olide Isolated at 24 hours incubation of compound in Pichia ohmeri
Scheffersomyces stipitis [9] = test: E-5,Z-7-dodien-4-olide Isolated at 24 hours incubation of compound in Pichia stipitis
Scheffersomyces stipitis [10] = test: E-5-decen-4-olide Isolated at 24 hours incubation of compound in Pichia stipitis
Kodamaea ohmeri [11] = test: Decan-4-olide Isolated at 24 hours incubation of compound in Pichia ohmeri
Kodamaea ohmeri [12] = test: E-5,Z-7-dodien-4-olide solated at 24 hours incubation of compound in Pichia ohmeri
Scheffersomyces stipitis [13] = test: Z-7-decen-5-olide Isolated at 24 hours incubation of compound in Pichia stipitis
Kodamaea ohmeri [14] = test: Z-7-decen-5-olide Isolated at 24 hours incubation of compound in Pichia ohmeri
Scheffersomyces stipitis [15] = test: Z-6, Z-9-dodecadien-4-olide Isolated at 24 hours incubation of compound in Pichia stipitis
Scheffersomyces stipitis [16] = test: Z-6-dodecen-4-olide Isolated at 24 hours incubation of compound in Pichia stipitis
Scheffersomyces stipitis [17] = test: 5-tetradecen-4-olide Isolated at 24 hours incubation of compound in Pichia stipitis
Kodamaea ohmeri [18] = test: Z-6-dodecen-4-olide Isolated at 24 hours incubation of compound in Pichia ohmeri
Scheffersomyces stipitis [19] = test: dodecan-4-olide Isolated at 24 hours incubation of compound in Pichia stipitis
Kodamaea ohmeri [20] = test: dodecan-4-olide Isolated at 24 hours incubation of compound in Pichia ohmeri
Kodamaea ohmeri [21] = test: Z-6, Z-9-dodecadien-4-olide Isolated at 24 hours incubation of compound in Pichia ohmeri

## CC/C=C/CC[C@@H]1CCC(=O)O1
Kodamaea ohmeri [1]
  Lactone production: 5.9
Kodamaea ohmeri [2]
  Lactone production: 1.1
Scheffersomyces stipitis [3]
  Lactone production: 0.3
Scheffersomyces stipitis [4]
  Lactone production: 4

## CC/C=C/CCCC1CCC(=O)O1 (stereo unspecified)
Scheffersomyces stipitis [5]
  Lactone production: 3.2
Scheffersomyces stipitis [6]
  Lactone production: 11.9
Kodamaea ohmeri [7]
  Lactone production: 8.25

## CC/C=C/C=C/[C@@H]1CCC(=O)O1
Kodamaea ohmeri [8]
  Lactone production: 7.6
Scheffersomyces stipitis [9]
  Lactone production: 25.09
Scheffersomyces stipitis [10]
  Lactone production: 8.6
Kodamaea ohmeri [11]
  Lactone production: 1.5
Kodamaea ohmeri [12]
  Lactone production: 20.5

## CC/C=C/C[C@@H]1CCC(=O)O1
Scheffersomyces stipitis [13]
  Lactone production: 12.5
Kodamaea ohmeri [14]
  Lactone production: 12.3

## CCCCCCCC/C=C/CCCC1CCC(=O)O1 (stereo unspecified)
Scheffersomyces stipitis [15]
  Lactone production: 16.7
Scheffersomyces stipitis [16]
  Lactone production: 11
Scheffersomyces stipitis [17]
  Lactone production: 2.6
Kodamaea ohmeri [18]
  Lactone production: 11.8
Scheffersomyces stipitis [19]
  Lactone production: 4
Kodamaea ohmeri [20]
  Lactone production: 4.6
Kodamaea ohmeri [21]
  Lactone production: 25.6
